Common to all, as to experiment: biochemical
What all share (set-up): KINOMEscan active site-directed competition binding assay (DiscoveRx), 456 kinases, per cent of control at 300 nM
Holding throughout (conditions): read-out: Percent of Control (%)

The target in one test is EGFR(S752-I759del) (Homo sapiens, UniProt P00533, DEL752-759). In outline:
(§1)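 Single-concentration selectivity screen: compound 300 nmol/L; 456-kinase panel; active-site-directed competition binding read-out.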

In another test the target is PIK3CA(E542K) (Homo sapiens, UniProt P42336, E542K). The essentials: as §1
PIK3CA(E542K), sequence (P42336 whole entry E542K): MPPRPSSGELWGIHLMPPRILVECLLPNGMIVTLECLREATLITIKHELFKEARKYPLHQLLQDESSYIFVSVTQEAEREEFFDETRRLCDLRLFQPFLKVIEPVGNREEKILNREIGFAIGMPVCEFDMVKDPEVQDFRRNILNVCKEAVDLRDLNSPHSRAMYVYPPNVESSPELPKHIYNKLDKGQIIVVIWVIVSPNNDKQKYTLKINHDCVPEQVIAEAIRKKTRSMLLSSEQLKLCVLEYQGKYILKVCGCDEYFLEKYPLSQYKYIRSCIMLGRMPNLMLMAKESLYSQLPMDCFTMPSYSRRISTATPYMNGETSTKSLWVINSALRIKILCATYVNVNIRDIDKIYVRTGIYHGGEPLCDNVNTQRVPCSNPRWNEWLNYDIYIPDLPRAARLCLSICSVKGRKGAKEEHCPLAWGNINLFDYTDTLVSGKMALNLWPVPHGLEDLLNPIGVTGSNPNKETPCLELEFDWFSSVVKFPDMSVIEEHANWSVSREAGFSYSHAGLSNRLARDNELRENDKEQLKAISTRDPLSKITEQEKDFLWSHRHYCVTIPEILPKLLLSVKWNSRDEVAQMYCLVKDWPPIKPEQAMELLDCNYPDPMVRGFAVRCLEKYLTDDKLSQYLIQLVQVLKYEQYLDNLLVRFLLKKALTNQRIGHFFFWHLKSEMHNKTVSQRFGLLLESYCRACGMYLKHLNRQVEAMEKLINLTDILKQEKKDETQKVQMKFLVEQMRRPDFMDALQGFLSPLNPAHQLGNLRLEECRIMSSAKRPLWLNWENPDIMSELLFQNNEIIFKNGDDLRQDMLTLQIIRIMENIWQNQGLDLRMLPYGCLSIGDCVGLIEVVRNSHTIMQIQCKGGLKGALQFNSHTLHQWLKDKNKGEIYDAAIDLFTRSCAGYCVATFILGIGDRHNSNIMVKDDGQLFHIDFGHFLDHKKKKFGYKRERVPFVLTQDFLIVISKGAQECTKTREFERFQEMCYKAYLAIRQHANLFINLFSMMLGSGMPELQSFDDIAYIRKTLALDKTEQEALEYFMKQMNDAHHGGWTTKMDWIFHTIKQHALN
Test [1] has as its target T1, RSK3(Kin.Dom.2-C-terminal) (Homo sapiens, UniProt Q15349).
T1 construct: gene RPS6KA2; Kin.Dom.2-C-terminal
In outline: as §1

For test [2], the target named is T2, RSK2(Kin.Dom.1-N-terminal) (Homo sapiens, UniProt P51812).
T2 construct: gene RPS6KA3; Kin.Dom.1-N-terminal
The essentials:
as §1

The next test concerns the target EGFR(L858R,T790M) (Homo sapiens, UniProt P00533, L858R/T790M). In outline: as §1
A further test concerns the target PRKX (Homo sapiens, UniProt P51817). In outline:
as §1

A further test has as its target SRC (Homo sapiens, UniProt P12931). The essentials: as §1
The target of another test is T3, DLK (Homo sapiens, UniProt Q12852).
T3 construct: gene MAP3K12
T3 sequence (Q12852 whole entry): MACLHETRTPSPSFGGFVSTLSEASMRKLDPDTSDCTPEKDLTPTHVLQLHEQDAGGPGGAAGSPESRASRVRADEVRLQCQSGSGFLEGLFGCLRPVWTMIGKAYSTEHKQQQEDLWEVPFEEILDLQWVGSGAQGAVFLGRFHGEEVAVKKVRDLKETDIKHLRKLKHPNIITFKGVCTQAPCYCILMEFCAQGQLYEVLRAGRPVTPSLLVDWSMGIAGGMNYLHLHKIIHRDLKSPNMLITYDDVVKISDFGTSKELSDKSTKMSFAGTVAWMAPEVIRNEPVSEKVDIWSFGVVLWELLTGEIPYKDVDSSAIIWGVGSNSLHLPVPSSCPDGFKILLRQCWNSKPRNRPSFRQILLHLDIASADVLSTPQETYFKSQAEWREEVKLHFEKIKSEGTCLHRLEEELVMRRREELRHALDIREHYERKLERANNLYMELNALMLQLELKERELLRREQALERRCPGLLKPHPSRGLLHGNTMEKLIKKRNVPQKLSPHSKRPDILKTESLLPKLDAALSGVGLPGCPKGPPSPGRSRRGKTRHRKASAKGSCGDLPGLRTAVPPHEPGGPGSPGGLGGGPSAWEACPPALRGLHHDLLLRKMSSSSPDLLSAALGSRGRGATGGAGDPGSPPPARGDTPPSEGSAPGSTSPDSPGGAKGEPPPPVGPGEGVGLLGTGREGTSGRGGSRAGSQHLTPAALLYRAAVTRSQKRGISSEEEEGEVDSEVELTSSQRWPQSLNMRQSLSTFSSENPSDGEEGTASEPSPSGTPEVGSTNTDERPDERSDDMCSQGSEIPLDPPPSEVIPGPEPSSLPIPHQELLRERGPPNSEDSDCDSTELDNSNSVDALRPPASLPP
The essentials: as §1

For another test, the target named is FLT3 (Homo sapiens, UniProt P36888). The essentials:
as §1

The target of another test is T4, ERK5 (Homo sapiens, UniProt Q13164).
T4 construct: gene MAPK7
In outline: as §1

The target in another test is MAP4K2 (Homo sapiens, UniProt Q12851). The essentials: as §1
Another test addresses T5, YANK2 (Homo sapiens, UniProt Q9NY57).
T5 construct: gene STK32B
In outline: as §1

In the next test the target is PRKD3 (Homo sapiens, UniProt O94806). The essentials:
as §1

The target in another test is PIK3CA(H1047L) (Homo sapiens, UniProt P42336, H1047L). In outline:
as §1

In a further test the target is GRK1 (Homo sapiens, UniProt Q15835). The essentials: as §1
The target of a further test is HUNK (Homo sapiens, UniProt P57058). In outline: as §1
HUNK, sequence (P57058 whole entry): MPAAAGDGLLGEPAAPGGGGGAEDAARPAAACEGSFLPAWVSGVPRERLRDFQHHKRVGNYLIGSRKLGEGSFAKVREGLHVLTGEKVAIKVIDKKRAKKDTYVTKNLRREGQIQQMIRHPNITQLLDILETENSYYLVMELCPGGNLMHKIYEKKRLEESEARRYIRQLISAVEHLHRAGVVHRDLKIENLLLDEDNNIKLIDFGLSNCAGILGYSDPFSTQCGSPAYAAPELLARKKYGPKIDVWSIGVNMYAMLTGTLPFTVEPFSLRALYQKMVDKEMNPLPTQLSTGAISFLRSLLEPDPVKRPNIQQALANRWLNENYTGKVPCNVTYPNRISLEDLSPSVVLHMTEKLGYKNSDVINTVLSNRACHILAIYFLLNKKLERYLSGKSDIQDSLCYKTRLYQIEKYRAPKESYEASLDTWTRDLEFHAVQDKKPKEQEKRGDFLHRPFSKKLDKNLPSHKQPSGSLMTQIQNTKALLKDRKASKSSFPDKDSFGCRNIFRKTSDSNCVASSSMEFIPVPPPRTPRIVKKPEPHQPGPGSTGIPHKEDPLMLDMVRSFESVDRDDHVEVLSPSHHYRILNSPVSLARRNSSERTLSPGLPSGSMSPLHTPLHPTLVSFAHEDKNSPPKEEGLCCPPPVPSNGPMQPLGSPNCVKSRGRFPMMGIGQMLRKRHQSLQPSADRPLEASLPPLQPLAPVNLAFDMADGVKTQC
Another test addresses T6, CDC2L1 (Homo sapiens, UniProt P21127).
T6 construct: gene CDK11B
The essentials:
as §1

The next test addresses CLK4 (Homo sapiens, UniProt Q9HAZ1). The essentials: as §1
In a further test the target is MET (Homo sapiens, UniProt P08581). The essentials:
as §1

In a further test the target is FYN (Homo sapiens, UniProt P06241). The essentials: as §1
For a further test, the target named is T7, CDC2L2 (Homo sapiens, UniProt Q9UQ88).
T7 construct: gene CDK11A
The essentials:
as §1

The record followed here is paper PMC5862592, “CDK8/19 inhibition induces premature G1/S transition and ATR-dependent cell death in prostate cancer cells” (Oncotarget, 2018).

Like-named read-outs stand apart in the source and are kept apart here.

T1 sequence (Q15349 whole entry): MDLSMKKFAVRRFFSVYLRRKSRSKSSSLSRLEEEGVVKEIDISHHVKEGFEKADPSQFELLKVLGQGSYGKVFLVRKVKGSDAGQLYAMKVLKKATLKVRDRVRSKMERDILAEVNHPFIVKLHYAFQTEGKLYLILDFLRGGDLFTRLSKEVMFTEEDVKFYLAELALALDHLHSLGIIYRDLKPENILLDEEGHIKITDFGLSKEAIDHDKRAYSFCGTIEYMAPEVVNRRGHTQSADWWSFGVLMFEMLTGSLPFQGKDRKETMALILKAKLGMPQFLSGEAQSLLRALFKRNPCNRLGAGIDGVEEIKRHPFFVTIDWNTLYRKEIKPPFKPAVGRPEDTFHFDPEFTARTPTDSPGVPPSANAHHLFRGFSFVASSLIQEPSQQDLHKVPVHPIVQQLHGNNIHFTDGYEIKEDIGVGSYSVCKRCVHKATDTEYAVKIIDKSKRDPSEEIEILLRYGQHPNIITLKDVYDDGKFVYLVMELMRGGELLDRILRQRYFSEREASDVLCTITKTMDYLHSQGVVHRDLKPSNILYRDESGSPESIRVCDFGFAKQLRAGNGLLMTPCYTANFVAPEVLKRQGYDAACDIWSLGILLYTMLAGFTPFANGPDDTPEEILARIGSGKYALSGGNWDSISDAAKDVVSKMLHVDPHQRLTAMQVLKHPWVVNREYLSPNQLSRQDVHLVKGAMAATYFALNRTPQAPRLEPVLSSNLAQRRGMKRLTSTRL
T5 sequence (Q9NY57 whole entry): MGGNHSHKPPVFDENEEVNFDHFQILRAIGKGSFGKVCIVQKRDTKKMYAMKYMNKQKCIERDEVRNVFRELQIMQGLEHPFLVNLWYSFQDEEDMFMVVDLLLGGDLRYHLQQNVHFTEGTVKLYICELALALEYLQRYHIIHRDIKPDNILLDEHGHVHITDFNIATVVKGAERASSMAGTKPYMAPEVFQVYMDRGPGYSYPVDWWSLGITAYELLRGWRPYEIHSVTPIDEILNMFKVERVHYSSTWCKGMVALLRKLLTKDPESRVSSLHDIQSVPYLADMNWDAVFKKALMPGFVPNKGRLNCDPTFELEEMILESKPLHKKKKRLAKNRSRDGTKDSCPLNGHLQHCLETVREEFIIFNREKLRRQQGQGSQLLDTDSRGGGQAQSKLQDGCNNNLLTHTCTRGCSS
EGFR(S752-I759del), sequence (P00533 with tags, fused parts or gaps DEL752-759): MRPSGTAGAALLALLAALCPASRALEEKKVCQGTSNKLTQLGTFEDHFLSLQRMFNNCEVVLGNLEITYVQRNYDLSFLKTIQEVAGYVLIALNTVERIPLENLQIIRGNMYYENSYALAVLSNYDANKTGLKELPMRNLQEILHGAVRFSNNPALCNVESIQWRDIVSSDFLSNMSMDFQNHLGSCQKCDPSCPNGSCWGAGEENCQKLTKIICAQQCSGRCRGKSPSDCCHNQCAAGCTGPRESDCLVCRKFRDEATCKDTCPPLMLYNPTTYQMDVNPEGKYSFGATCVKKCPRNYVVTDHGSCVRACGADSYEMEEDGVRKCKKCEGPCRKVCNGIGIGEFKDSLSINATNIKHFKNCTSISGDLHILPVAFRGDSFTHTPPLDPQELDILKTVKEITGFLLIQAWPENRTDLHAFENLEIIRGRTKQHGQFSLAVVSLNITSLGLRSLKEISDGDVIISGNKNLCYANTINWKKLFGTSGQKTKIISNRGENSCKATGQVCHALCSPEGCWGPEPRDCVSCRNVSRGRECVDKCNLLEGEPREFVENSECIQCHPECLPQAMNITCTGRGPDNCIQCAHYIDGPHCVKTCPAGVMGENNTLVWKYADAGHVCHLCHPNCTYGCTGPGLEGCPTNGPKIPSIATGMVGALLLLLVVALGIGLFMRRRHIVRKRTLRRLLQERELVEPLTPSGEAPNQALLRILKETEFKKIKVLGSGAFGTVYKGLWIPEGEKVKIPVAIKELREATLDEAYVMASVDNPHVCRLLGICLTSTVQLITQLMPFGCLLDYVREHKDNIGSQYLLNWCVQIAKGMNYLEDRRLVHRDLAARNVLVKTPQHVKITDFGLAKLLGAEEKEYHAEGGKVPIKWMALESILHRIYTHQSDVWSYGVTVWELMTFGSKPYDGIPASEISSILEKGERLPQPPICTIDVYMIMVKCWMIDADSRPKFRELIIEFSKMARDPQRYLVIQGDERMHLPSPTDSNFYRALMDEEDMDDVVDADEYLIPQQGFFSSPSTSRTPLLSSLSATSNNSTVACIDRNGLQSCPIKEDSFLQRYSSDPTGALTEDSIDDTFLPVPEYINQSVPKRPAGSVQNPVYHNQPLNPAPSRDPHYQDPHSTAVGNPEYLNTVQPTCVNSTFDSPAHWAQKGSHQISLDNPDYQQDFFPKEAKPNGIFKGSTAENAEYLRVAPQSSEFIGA
PIK3CA(H1047L), sequence (P42336 whole entry H1047L): as the sequence (P42336 whole entry E542K) above, with K542E, H1047L counted along it

In the case of `O=C(/C=C/c1cnccc1-c1ccc(F)cc1)Nc1ccc(CCc2nnco2)cc1` [T-418, (2E)-3-(4-(4-fluorophenyl)pyridin-3-yl)-N-(4-(2-(1,3,4-oxadiazol-2-yl)ethyl)phenyl)acrylamide], the remaining binding at 0.3 µM is 98% on EGFR(S752-I759del) (sheet T-418); 100% on PIK3CA(E542K) (sheet T-418); 100% in test [1] (sheet T-418); 100% in [2] (sheet T-418); 98% at EGFR(L858R,T790M) (sheet T-418); 100% at PRKX (sheet T-418). The remaining binding at 0.3 µM on SRC (sheet T-418) turned out to be 90%; at DLK (sheet T-418), 91%; on FLT3 (sheet T-418), 66%; at ERK5 (sheet T-418) it was 75%; on MAP4K2 (sheet T-418), 100%; at YANK2 (sheet T-418), 78%. The remaining binding at 0.3 µM turned out to be 100% at PRKD3 (sheet T-418); 100% on PIK3CA(H1047L) (sheet T-418); 100% on GRK1 (sheet T-418); 100% at HUNK (sheet T-418); 92% on CDC2L1 (sheet T-418); 100% at CLK4 (sheet T-418). For the same compound, the remaining binding at 0.3 µM at MET (sheet T-418) is 92%; on FYN (sheet T-418), 100%; on CDC2L2 (sheet T-418), 100%.
In the case of `Cc1ncccc1Oc1sc(C(N)=O)c2c1-c1c(cnn1C)CC2` [T-474, 1-methyl-8-((2-methylpyridin-3-yl)oxy)-4,5-dihydro-1H-thieno[3,4-g]indazole-6-carboxamide], the remaining binding at 0.3 µM at EGFR(S752-I759del) was 100%; at PIK3CA(E542K) it was 100%; in test [1] it was 100%; in test [2], 100%; at EGFR(L858R,T790M), 85%; on PRKX it was 100%. Also, the remaining binding at 0.3 µM was 96% at SRC; 94% on DLK; 100% at FLT3; 98% on ERK5; 100% at MAP4K2; 100% at YANK2. For the same compound, the remaining binding at 0.3 µM was 100% on PRKD3; 100% on PIK3CA(H1047L); 100% on GRK1; 100% on HUNK; 100% at CDC2L1; 50% at CLK4. The remaining binding at 0.3 µM on MET was found to be 100%; on FYN it was 100%; at CDC2L2 it was 98%.
